Experimental data taken from patent US20230331672A1, “6-METHOXY-2-PHENETHYL ISOINDOLINE-1-ONE DERIVATIVE AND COMPOSITION FOR TREATING NEUROLOGICAL DISORDERS, COMPRISING SAME” (CNG BIO CO., LTD., priority 2020, published 2023).

Each compound was assayed on NO production in BV2 cells (microglia) (assay: NO production in LPS-stimulated BV2 cells (Griess reaction), antineuritic activity). Settings: 10 μM, 100 ng/ml LPS for 24 hours, nitrite by Griess reaction, FIG. 26.
Format: cell-based
Protocol: BV2 cells (microglia) were dispensed in DMEM culture solution at a concentration of 6×10^4 cells/well in a 96 well plate, and then treated with the compounds of the present invention at a concentration of 10 μM, and incubated for 24 hours. After 24 hours, each sample was treated with a concentration of 10 μM, reacted for 1 hour, and then stimulated with 100 ng/ml of LPS for 24 hours. The production of nitrite, a soluble oxidation product of NO (nitric oxide), was measured in the culture medium through the Griess reaction.

**Q.** For `COCOc1c(Br)c(OC)cc2c1CN(CCc1ccc(OC)cc1)C2=O` [Formula 12, 5-bromo-6-methoxy-4-(methoxymethoxy)-2-(4-methoxyphenethyl)isoindolin-1-one], which “NO production compared to untreated control group” value is on record?
**A.** Its value is “significantly reduced”.

**Q.** `C=Cc1c(OC)cc2c(c1OCOC)CN(CCc1ccc(OC)cc1)C2=O` [Formula 13, 6-methoxy-4-(methoxymethoxy)-2-(4-methoxyphenethyl)-5-vinylisoindolin-1-one] was tested. Which “NO production compared to untreated control group” value did it give?
**A.** The value was “significantly reduced”.

**Q.** With `COc1ccc(CCN2Cc3c(cc(OC)c(CCO)c3O)C2=O)cc1` [Formula 15, 4-hydroxy-5-(2-hydroxyethyl)-6-methoxy-2-(4-methoxyphenethyl)isoindolin-1-one] as the compound, how does the “NO production compared to untreated control group” value read?
**A.** The value was “significantly reduced”.

**Q.** Which “NO production compared to untreated control group” value does the source give for `COc1cc2c(c(O)c1CCCO)CN(CCc1ccccc1)C2=O` [Formula 17, 4-hydroxy-5-(3-hydroxypropyl)-6-methoxy-2-phenethyl isoindolin-1-one] here?
**A.** The value was “significantly reduced”.

**Q.** `COc1cc2c(c3c1CCO3)CN(CCc1ccccc1)C2=O` [Formula 19, 4-methoxy-7-phenethyl-7,8-dihydro-2H-furo[2,3-e]isoindole-6(3H)-1] was tested. Which “NO production compared to untreated control group” value did it give?
**A.** Its value is “significantly reduced”.

**Q.** With `C=Cc1c(OC)cc2c(c1O)CN(CCc1ccc(OC)cc1)C2=O` [Formula 21] as the compound, how does the “NO production compared to untreated control group” value read?
**A.** Its value is “significantly reduced”.

Each compound was assayed on nerve growth factor (NGF) in C6 glioma cells (assay: Ability to promote increase of nerve growth factor (NGF) produced in cell medium, ELISA). Settings: 10 μM, 24 hours, FIG. 22.
Format: cell-based, Rat
Protocol: Rat astrocyte-derived C6 glioma cells were dispensed in DMEM culture solution at a concentration of 1×10^5 cells/well in a 24 well plate and stabilized overnight, and then treated with the compounds of the present invention at a concentration of 10 μM, and reacted in a 37° C. incubator for 24 hours. The treated medium was collected and centrifuged, and then absorbance was measured using an enzyme linked immunoassay kit (ELISA kit).

**Q.** With `COc1cc2c(c(O)c1Br)CN(CCc1ccc(F)cc1)C2=O` [Formula 1, 5-bromo-2-(4-fluorophenethyl)-4-hydroxy-6-methoxyisoindolin-1-one] as the compound, how does the “nerve growth factor produced in the cell medium” value (shortened to “nerve growth factor produced”) read?
**A.** The value was “significantly excellent”.

**Q.** Which “nerve growth factor produced” value does the source give for `COc1cc2c(c(O)c1Br)CN(CCc1ccc(C(F)(F)F)cc1)C2=O` [Formula 6, 5-bromo-4-hydroxy-6-methoxy-2-(4-(trifluoromethyl)phenethyl)isoindolin-1-one] here?
**A.** Its value is “significantly excellent”.

**Q.** For `C=Cc1c(OC)cc2c(c1OCOC)CN(CCc1ccc(OC)cc1)C2=O` [Formula 13, 6-methoxy-4-(methoxymethoxy)-2-(4-methoxyphenethyl)-5-vinylisoindolin-1-one], which “nerve growth factor produced” value is on record?
**A.** Its value is “significantly excellent”.

**Q.** With `C=Cc1c(OC)cc2c(c1O)CN(CCc1ccc(C(F)(F)F)cc1)C2=O` [Formula 20, 4-hydroxy-6-methoxy-2-(4-(trifluoromethyl)phenethyl)-5-vinylisoindolin-1-one] as the compound, how does the “nerve growth factor produced” value read?
**A.** The value was “significantly excellent”.
